Values quoted from earlier work in patent publication EP3616687A2, “PREPARATION FOR THE TREATMENT AND/OR PROPHYLAXIS OF INFLAMMATORY INFECTIOUS DISEASES” (Lovtsov, Valentin Vyacheslavovich, priority 2017, dated 2018).

Details: clinical microbiological studies

[H]/N=C(\N/C(=N/[H])NCCCCCCNC(=N)NC(=N)Nc1ccc(Cl)cc1)Nc1ccc(Cl)cc1 [Chlorhexidine]
antibacterial activity, fold higher compared to Miramistine: 8 fold
